Assay results: patent publication US6331548A, “1-cycloalkyl-1,8-naphthyridin-4-one derivative as type IV phosphodiesterase inhibitor” (Suntory Limited, priority 1998, dated 2001)
Where a name gives a salt, the structure may show the parent alone.

Each molecule was assayed against type IV phosphodiesterase (assay: Type IV phosphodiesterase inhibiting activity). Conditions: U937 type IV phosphodiesterase fraction, 0.28 μM cAMP, pH 7.5, 30° C., 30 minutes; read-out: PDEIV-IC50.
Format: biochemical, human
Protocol: The following assay was used to evaluate the ability of the compound of the present invention to suppress type IV phosphodiesterase, according to Biochemical. Pharmacol. 48 (6), 1219-1223 (1994).
1) Type IV phosphodiesterase activity fractions were prepared as follows. Namely, human histiocytic lymphoma cell line U937 was cultured in an RPMI1640 medium containing 10% fetal calf serum to obtain 10^9 cells of U937. The cells were recovered by centrifugation and suspended in 40 ml of buffer A (20 mM bis-tris, 5 mM 2-mercaptoethanol, 2 mM benzamidine, 2 mM EDTA, 0.1 mM 4-(2-aminoethyl)benzensulfonyl hydrochloride, 50 mM sodium acetate, pH=6.5). The cells were broken by a sonication and centrifuged (4° C., 10,000 G, 10 minutes) to obtain a supernatant. This was filtered by a 0.45 μm filter to obtain the soluble fraction.
2) The soluble fraction obtained was applied into a 1×10 cm DEAE Sepharose column equalibrated with the buffer A. 120 ml of the buffer A containing a linear gradient solution of 0.05 to 1M sodium acetate was used to separate the phosphodiesterase and recover 24 5-ml fractions. Each of the fractions was measured for the cAMP phosphodiesterase activity.
3) The test compound was reacted at a desired concentration in a reaction mixture containing 20 mM tris-HCl (pH 7.5), 1 mM MgCl2, 100 μM EDTA, 330 μg/ml calf serum albumin, 10 μg/ml 5'-nucleotidase, 0.4 μCi ^3 H-cAMP (0.28 μM cAMP) and the type IV phosphodiesterase stored solution at 30° C. for 30 minutes. QAE-Sephadex suspended in 10 mM of hepes-Na (pH -7.0) was added to the reaction mixture which was then allowed to stand for 5 minutes, then the supernatant was obtained, QAE-Sephadex was further added, to the supernatant, and was allowed to stand for 5 minutes, then the supernatant was obtained and measured for radioactivity.

| IC50 | SMILES |
| --- | --- |
| 4.1 nM | CC1(O)CCC(n2cc(C(=O)Nc3c(Cl)cncc3Cl)c(=O)c3cccnc32)CC1 (stereo not shown) [Example 192, N-(3,5-dichloropyridin-4-yl)-1-(4-hydroxy-4-methylcyclohexyl)-1,4-dihydro[1,8]naphthylidin-4-one-3-carboxamide] |
| 180 nM | O=C1CCC(n2cc(C(=O)Nc3ccncc3)c(=O)c3cccnc32)CC1 [Example 61, N-(4-pyridyl)-1-(4-oxocyclohexyl)-1,4-dihydro[1,8]naphthylidin-4-one-3-carboxamide] |
| 9.3 nM | CCC(=O)O[C@H]1CC[C@H](n2cc(C(=O)Nc3c(Cl)cncc3Cl)c(=O)c3cccnc32)CC1 [Example 129, trans-4-[3-{[(3,5-dichloro-4-pyridinyl)amino]carbonyl}-4-oxo[1,8]naphthylidin-1(4H)-yl]cyclohexylpropionate] |
| 2300 nM | Cc1nn(C)c(C)c1NC(=O)c1cn([C@H]2CC[C@H](O)CC2)c2ncccc2c1=O [Example 184, N-(1,3,5-trimethylpyrazol-4-yl)-1-(trans-4-hydroxycyclohexyl)-1,4-dihydro[1,8]naphthylidin-4-one-3-carboxamide] |
| 110 nM | CS(=O)(=O)N[C@H]1CC[C@H](n2cc(C(=O)Nc3c(Cl)cncc3Cl)c(=O)c3cccnc32)CC1 [Example 72, N-(3,5-dichloropyridin-4-yl)-1-[trans-4-(methanesulfonylamino)cyclohexyl]-1,4-dihydro[1,8]naphthylidin-4-one-3-carboxamide] |
| 120 nM | O=C(Nc1ccncc1)c1cn(C2CCC2)c2ncccc2c1=O [Example 144, N-(4-pyridyl)-1-cyclobutyl-1,4-dihydro[1,8]naphthylidin-4-one-3-carboxamide] |
| 7.3 nM | CN1CCN(Cc2ccc(C(=O)O[C@H]3CC[C@H](n4cc(C(=O)Nc5c(Cl)cncc5Cl)c(=O)c5cccnc54)CC3)cc2)CC1 [Example 133, trans-4-[3-{[(3,5-dichloro-4-pyridinyl)amino]carbonyl}-4-oxo[1,8]naphthylidin-1(4H)-yl]cyclohexyl 4-[(4-methylpiperazino)methyl]benzoate dihydrochloride] |
| 960 nM | CC1(O)CCC(n2cc(C(=O)Nc3ccncc3)c(=O)c3cccnc32)CC1 (stereo not shown) [Example 194, N-(4-pyridinyl)-1-(4-hydroxy-4-methylcyclohexyl)-1,4-dihydro[1,8]naphthylidin-4-one-3-carboxamide] |
| 210 nM | O=C(Nc1ccncc1)c1cn([C@H]2CC[C@@H](O)CC2)c2ncccc2c1=O [Example 115, N-(4-pyridyl)-1-(cis-4-hydroxycyclohexyl)-1,4-dihydro[1,8]naphthylidin-4-one-3-carboxamide] |
| 8.3 nM | O=C(Nc1c(Cl)cncc1Cl)c1cn(C2CCC2)c2ncccc2c1=O [Example 145, N-(3,5-dichloropyridin-4-yl)-1-cyclobutyl-1,4-dihydro[1,8]naphthylidin-4-one-3-carboxamide] |
| 4500 nM | Cc1noc(NC(=O)c2cn([C@H]3CC[C@H](O)CC3)c3ncccc3c2=O)c1C [Example 180, N-(3,4-dimethylisoxazol-5-yl)-1-(trans-4-hydroxycyclohexyl)-1,4-dihydro[1,8]naphthylidin-4-one-3-carboxamide] |
| 360 nM | O=C(Nc1cccnc1)c1cn([C@H]2CC[C@H](O)CC2)c2ncccc2c1=O [Example 172, N-(3-pyridyl)-1-(trans-4-hydroxycyclohexyl)-1,4-dihydro[1,8]naphthylidin-4-one-3-carboxamide] |
| 6.2 nM | CC(=O)O[C@H]1CC[C@H](n2cc(C(=O)Nc3c(Cl)cncc3Cl)c(=O)c3cccnc32)CC1 [Example 197, trans-4-[3-{[(3,5-dichloropyridin-4-yl)amino]carbonyl}-1,4-dihydro[1,8]naphthylidin-1-yl]cyclohexyl acetate] |
| 4.5 nM | O=C(O[C@H]1CC[C@H](n2cc(C(=O)Nc3c(Cl)cncc3Cl)c(=O)c3cccnc32)CC1)c1ccc(CN2CCOCC2)cc1 [Example 135, trans-4-[3-{[(3,5-dichloro-4-pyridinyl)amino]carbonyl}-4-oxo[1,8]naphthylidin-1(4H)-yl]cyclohexyl 4-(morpholinomethyl)benzoate hydrochloride] |
| 920 nM | Cc1cc(NC(=O)c2cn([C@H]3CC[C@H](O)CC3)c3ncccc3c2=O)sn1 [Example 176, N-(3-methylisothiazol-5-yl)-1-(trans-4-hydroxycyclohexyl)-1,4-dihydro[1,8]naphthylidin-4-one-3-carboxamide] |
| 3.9 nM | CC(=O)N[C@H]1CC[C@H](n2cc(C(=O)Nc3c(Cl)cncc3Cl)c(=O)c3cccnc32)CC1 [Example 70, N-(3,5-dichloropyridin-4-yl)-1-[trans-4-(acetylamino)cyclohexyl]-1,4-dihydro[1,8]naphthylidin-4-one-3-carboxamide] |
| 210 nM | N[C@H]1CC[C@H](n2cc(C(=O)Nc3c(Cl)cncc3Cl)c(=O)c3cccnc32)CC1 [Example 69, N-(3,5-dichloropyridin-4-yl)-1-(trans-4-aminocyclohexyl)-1,4-dihydro[1,8]naphthylidin-4-one-3-carboxamide acetate] |
| 0.3 nM | O=C(Nc1c(Cl)cncc1Cl)c1cn(C2CCCC2)c2ncccc2c1=O [Example 150, N-(3,5-dichloropyridin-4-yl)-1-cyclopentyl-1,4-dihydro[1,8]naphthylidin-4-one-3-carboxamide] |
| 3300 nM | Cc1cc(NC(=O)c2cn([C@H]3CC[C@H](O)CC3)c3ncccc3c2=O)on1 [Example 178, N-(3-methylisoxazol-5-yl)-1-(trans-4-hydroxycyclohexyl)-1,4-dihydro[1,8]naphthylidin-4-one-3-carboxamide] |
| 130 nM | Cc1cnccc1NC(=O)c1cn([C@H]2CC[C@H](O)CC2)c2ncccc2c1=O [Example 174, N-(3-methylpyridin-4-yl)-1-(trans-4-hydroxycyclohexyl)-1,4-dihydro[1,8]naphthylidin-4-one-3-carboxamide] |
| 4 nM | CCN(CC)Cc1ccc(C(=O)O[C@H]2CC[C@H](n3cc(C(=O)Nc4c(Cl)cncc4Cl)c(=O)c4cccnc43)CC2)cc1 [Example 159, trans-4-[3-{[(3,5-dichloro-4-pyridinyl)amino]carbonyl}-4-oxo[1,8]naphthylidin-1(4H)-yl]cyclohexyl 4-(diethylaminomethyl)benzoate hydrochloride] |
| 330 nM | O=C(Nc1ccncc1)c1cn([C@@H]2CCOC2)c2ncccc2c1=O [Example 38, N-(4-pyridyl)-1-[(R)-tetrahydro-3-furanyl]-1,4-dihydro[1,8]naphthylidin-4-one-3-carboxamide] |
| 5.7 nM | CC(C)(C)C(=O)O[C@H]1CC[C@H](n2cc(C(=O)Nc3c(Cl)cncc3Cl)c(=O)c3cccnc32)CC1 [Example 128, trans-4-[3-{[(3,5-dichloro-4-pyridinyl)amino]carbonyl}-4-oxo[1,8]naphthylidin-1(4H)-yl]cyclohexylpivalate] |

| SMILES | IC50 |
| --- | --- |
| O=C(NC1CCCC1)c1cn([C@H]2CC[C@H](O)CC2)c2ncccc2c1=O [Example 168, N-cyclopentyl-1-(trans-4-hydroxycyclohexyl)-1,4-dihydro[1,8]naphthylidin-4-one-3-carboxamide] | 1500 nM |
| O=C(NC1CC1)c1cn([C@H]2CC[C@H](O)CC2)c2ncccc2c1=O [Example 170, N-cyclopropyl-1-(trans-4-hydroxycyclohexyl)-1,4-dihydro[1,8]naphthylidin-4-one-3-carboxamide] | 990 nM |
